± gives the uncertainty stated by the source.
Assay: xn = mol fraction of the nth substance listed

COC(=O)c1ccccc1 + O=C1CCCCC1
viscosity [mPa·s], 101 kPa
Conditions	x1 = 0.0859	x1 = 0.1728	x1 = 0.2643	x1 = 0.3589	x1 = 0.4562	x1 = 0.5517	x1 = 0.6575	x1 = 0.7664	x1 = 0.8794
303.15 K	1.713 ± 0.017	1.643 ± 0.016	1.593 ± 0.016	1.552 ± 0.015	1.535 ± 0.015	1.548 ± 0.015	1.56 ± 0.02	1.597 ± 0.015	1.646 ± 0.015
313.15 K	1.422 ± 0.015	1.367 ± 0.015	1.332 ± 0.015	1.299 ± 0.014	1.282 ± 0.014	1.292 ± 0.014	1.307 ± 0.014	1.337 ± 0.014	1.375 ± 0.014

CC(C)OCCO + O=C1CCCN1
298.15 K, 101 kPa
Conditions	viscosity [mPa·s]
x1 = 0.0071	13.9 ± 0.14
x1 = 0.0159	13.59 ± 0.14
x1 = 0.0316	12.93 ± 0.13
x1 = 0.0611	11.92 ± 0.12
x1 = 0.1046	10.57 ± 0.11
x1 = 0.1603	9.092 ± 0.1
x1 = 0.2294	7.709 ± 0.089
x1 = 0.2699	7.051 ± 0.083
x1 = 0.3267	6.264 ± 0.076
x1 = 0.3725	5.709 ± 0.071
x1 = 0.4121	5.308 ± 0.068
x1 = 0.4371	5.073 ± 0.066
x1 = 0.4623	4.846 ± 0.063
x1 = 0.5125	4.439 ± 0.059
x1 = 0.5675	4.067 ± 0.055
x1 = 0.6092	3.792 ± 0.052
x1 = 0.6833	3.388 ± 0.047
x1 = 0.7418	3.111 ± 0.044
x1 = 0.7986	2.871 ± 0.041
x1 = 0.8498	2.672 ± 0.039
x1 = 0.888	2.528 ± 0.037
x1 = 0.9155	2.412 ± 0.036
x1 = 0.943	2.304 ± 0.034
x1 = 0.9583	2.252 ± 0.034
x1 = 0.9786	2.193 ± 0.033

CCNCCO + O=C=O
viscosity [mPa·s], 101.3 kPa
Conditions	293.15 K	303.15 K	313.15 K	323.15 K
x2 = 0.09091	51.76 ± 10	29.14 ± 5.8	17.6 ± 3.5	11.32 ± 2.3
x2 = 0.1667	197.6 ± 40	99.53 ± 20	54.38 ± 11	31.96 ± 6.4
x2 = 0.2308	791.4 ± 160	361 ± 73	179.9 ± 36	97.29 ± 19

CCCCOCCO + O=[N+]([O-])c1ccccc1
298.15 K, 101 kPa
Conditions	viscosity [mPa·s]
x2 = 0.0547	2.794 ± 0.031
x2 = 0.1022	2.774 ± 0.031
x2 = 0.2045	2.736 ± 0.029
x2 = 0.3045	2.699 ± 0.027
x2 = 0.4006	2.651 ± 0.026
x2 = 0.4508	2.618 ± 0.025
x2 = 0.4991	2.58 ± 0.024
x2 = 0.5486	2.537 ± 0.023
x2 = 0.594	2.492 ± 0.023
x2 = 0.6924	2.376 ± 0.021
x2 = 0.7994	2.223 ± 0.018
x2 = 0.8996	2.042 ± 0.016
x2 = 0.9389	1.959 ± 0.015

CCCCCCCCCCCC[P+](CCCC)(CCCC)CCCC.N#Cc1ccc[n-]1 + OCCN(CCO)CCO
100 kPa
Conditions	viscosity [mPa·s]
293.15 K, x1 = 0.017	983 ± 150
293.15 K, x1 = 0.244	974 ± 150
293.15 K, x1 = 0.325	926 ± 140
293.15 K, x1 = 0.431	828 ± 120
293.15 K, x1 = 0.538	765 ± 120
293.15 K, x1 = 0.755	675 ± 100
298.15 K, x1 = 0.035	674 ± 100
298.15 K, x1 = 0.054	682 ± 100
298.15 K, x1 = 0.096	687 ± 100
298.15 K, x1 = 0.121	686 ± 100
298.15 K, x1 = 0.177	678 ± 100

CCCCOCCO + OCCO
101 kPa
Conditions	viscosity [mPa·s]
293.15 K, x1 = 0.0517	19.96 ± 0.13
293.15 K, x1 = 0.099	18.69 ± 0.12
293.15 K, x1 = 0.2024	15.74 ± 0.1
293.15 K, x1 = 0.2993	13.1 ± 0.082
293.15 K, x1 = 0.4009	10.68 ± 0.066
293.15 K, x1 = 0.4475	9.72 ± 0.06
293.15 K, x1 = 0.5022	8.702 ± 0.053
293.15 K, x1 = 0.5447	7.996 ± 0.049
293.15 K, x1 = 0.6011	7.158 ± 0.044
293.15 K, x1 = 0.7009	5.905 ± 0.036
293.15 K, x1 = 0.8048	4.826 ± 0.03
293.15 K, x1 = 0.8992	3.996 ± 0.025
293.15 K, x1 = 0.9413	3.661 ± 0.023
298.15 K, x1 = 0.0515	16.18 ± 0.11
298.15 K, x1 = 0.1025	15.09 ± 0.098
298.15 K, x1 = 0.1973	12.9 ± 0.083
298.15 K, x1 = 0.2977	10.71 ± 0.068
298.15 K, x1 = 0.3863	9.036 ± 0.057
298.15 K, x1 = 0.4425	8.124 ± 0.051
298.15 K, x1 = 0.4743	7.652 ± 0.048
298.15 K, x1 = 0.5523	6.625 ± 0.041
298.15 K, x1 = 0.6012	6.061 ± 0.038
298.15 K, x1 = 0.6986	5.082 ± 0.032
298.15 K, x1 = 0.783	4.349 ± 0.027
298.15 K, x1 = 0.8985	3.469 ± 0.022
298.15 K, x1 = 0.9474	3.145 ± 0.02
303.15 K, x1 = 0.0582	12.73 ± 0.085
303.15 K, x1 = 0.098	12.07 ± 0.08
303.15 K, x1 = 0.2036	10.21 ± 0.067
303.15 K, x1 = 0.2996	8.621 ± 0.056
303.15 K, x1 = 0.4	7.191 ± 0.046
303.15 K, x1 = 0.4503	6.57 ± 0.042
303.15 K, x1 = 0.5015	5.989 ± 0.039
303.15 K, x1 = 0.543	5.563 ± 0.036
303.15 K, x1 = 0.6003	5.022 ± 0.033
303.15 K, x1 = 0.703	4.185 ± 0.027
303.15 K, x1 = 0.8036	3.495 ± 0.022
303.15 K, x1 = 0.8935	2.979 ± 0.019
303.15 K, x1 = 0.95	2.691 ± 0.017

— the CheMixHub viscosity set
